Data from patent publication US9253983B2, “Triazole compound and use thereof” (KUREHA CORPORATION, priority 2011, dated 2016).

Key:
Gaeumannomyces graminis = experiment: Test 1 for antifungal effect, plate medium: G.g; type: cell-based; details: PDA plate medium
Procedure: (§1) Compound (1-1a) or Compound (1-2a) was dissolved in dimethyl sulfoxide, and the resulting solution was added to a PDA medium (potato dextrose-agar medium) at about 60° C. The medium and the solution were mixed thoroughly in a conical flask, poured into a petri dish, and allowed to solidify. In this way, a plate medium containing Compound (1-1a) or Compound (1-2a) at a certain concentration was prepared.
(§2) Meanwhile, test microorganisms cultured on a plate medium in advance were cut out with the use of a cork borer 4 mm in diameter, and were inoculated onto the compound-containing plate medium. After the inoculation, the microorganisms were cultured at their optimum growth temperatures (for example, refer to LIST OF CULTURES 1996 microorganisms 10th edition, Institute for Fermentation (foundation)) for 1 day to 7 days, and their growth was determined by measuring the diameter of their flora. The extent of growth of the microorganisms on the compound-containing plate medium was compared with that of microorganisms on a plate medium where no compound was added, and mycelial growth inhibition rate was calculated by the following equation: R=100(dc−dt)/dc where R is mycelial growth inhibition rate (%), dc is the flora diameter in untreated plate, and dt is the flora diameter in plate treated with the compound.
(§3) A larger antifungal index indicates a better antifungal effect.

Fusarium oxysporum = experiment: Test 2 for antifungal effect, plate medium: F.c; type: cell-based; details: PDA plate medium
Procedure: Compound (1-1b) or Compound (1-2b) was dissolved in dimethyl sulfoxide, and the resulting solution was added to a PDA medium (potato dextrose-agar medium) at about 60° C. The medium and the solution were mixed thoroughly in a conical flask, poured into a petri dish, and allowed to solidify. In this way, a plate medium containing Compound (1-1b) or Compound (1-2b) at a certain concentration was prepared.
Meanwhile, test microorganisms cultured on a plate medium in advance were cut out with the use of a cork borer 4 mm in diameter, and were inoculated onto the compound-containing plate medium. After the inoculation, the pathogens were cultured at their optimum growth temperatures (for example, refer to LIST OF CULTURES 1996 microorganisms 10th edition, Institute for Fermentation (foundation)) for 1 day to 7 days, and their growth was determined by measuring the diameter of their flora. The extent of growth of the pathogens on the compound-containing plate medium was compared with that of pathogens on a plate medium where no compound was added, and mycelial growth inhibition rate was calculated as in Experiment Example 10. Note that, in Experiment Example 11, controls used in the antifungal effect tests are Compound (1-1a) and Compound (1-2a) instead of Compound (1-1b) and Compound (1-2b), respectively.
The results were rated on a 1-to-5 scale as in Experiment Example 10.

Sclerotinia sclerotiorum = experiment: Test 1 for antifungal effect, plate medium: S.s; type: cell-based; details: PDA plate medium
Procedure: as §1, §2, §3

Botrytis cinerea = experiment: Controlling effect on cucumber gray mold by foliage spray treatment (Tests 1 and 2); type: in vivo; details: foliage spray 12.5 mg/L, 1,000 L/ha, four days after inoculation
Procedure: The cucumber plants had been grown in square plastic pots (6 cm×6 cm). After the suspension was then left to dry, paper discs (8 mm in diameter) impregnated with a spore suspension of Botrytis cinerea w ere placed on the leaves, and the plants were kept at 20° C. in a high humidity environment. Four days after inoculation, the lesion degree of the cucumber gray mold was examined in accordance with the criteria shown in Table 1, and the protective values were calculated by the following equation: Protective value (%)=(1−Average lesion degree in sprayed plot/Average lesion degree in unsprayed plot)×100.
The cucumber plants had been grown in square plastic pots (6 cm×6 cm). After the leaves were air-dried, paper discs (8 mm in diameter) impregnated with a spore suspension of cucumber graymold-causing microorganisms were placed on the leaves, and the plants were kept at 20° C. in a high humidity environment. 4 days after the inoculation, the lesion degree of the cucumber gray mold was examined, and the protective values were calculated as were in Experiment Example 1.

Puccinia recondita = experiment: Controlling effect on wheat brown rust (leaf rust) by foliage spray treatment (Tests 1 and 2); type: in vivo; details: foliage spray 0.8 mg/L, 1,000 L/ha, 11 days after inoculation
Procedure: The wheat plants had been grown in square plastic pots (6 cm×6 cm). The suspensions were left to dry, and inoculated with spores of Puccinia recondita (adjusted at 200 spores per field of vision, Gramin S was added at 60 ppm) by spraying, and kept at 25° C. in a high humidity environment for 48 hours. After that, the plants were kept in a greenhouse. 11 days after the inoculation, the lesion degree of the wheat leaf rust was examined in accordance with the criteria shown in Table 4, and the protective values were calculated by the following equation. Protective value (%)=(1−Average lesion degree in sprayed plot/Average lesion degree in unsprayed plot)×100
The wheat plants had been grown in square plastic pots (6 cm×6 cm). The leaves were air-dried, and inoculated with spores of Puccinia recondita (adjusted at 200 spores per field of vision, Gramin S was added at 60 ppm) by spraying, and kept at 25° C. in a high humidity environment for 48 hours. After that, the plants were kept in a greenhouse. 11 days after the inoculation, the lesion degree of the wheat leaf rust was examined, and the protective values were calculated as were in Experiment Example 2.

Rhizopus oryzae = experiment: Test 1 for antifungal effect, plate medium: R.o; type: cell-based; details: PDA plate medium
Procedure: as §1, §2, §3

Microdochium nivale = experiment: Test 1 for antifungal effect, plate medium: M.n; type: cell-based; details: PDA plate medium
Procedure: as §1, §2, §3

wheat = experiment: Necrosis (adverse effects) of seed treatment on wheat seeds; type: in vivo; details: 20 days after sowing
Procedure: A pot experiment was performed to evaluate necrosis (adverse effects) caused by the seed treatment. Compound (1-1a) and Compound (1-2a), each which was dissolved in DMSO to make up such a concentration that the seeds would be treated in treatment amount of 2 g to 200 g ai/100 kg seeds, were each applied to wheat seeds in a vial, and thereafter 8 wheat seeds were sowed in an 80-cm^2 pot. The pot was kept in a greenhouse with water supplied to its bottom. 20 days after the sowing, an extent of necrosis (percentage of necrotic surface area) of wheat was evaluated. A necrosis index was derived from the percentage of the necrotic surface area, based on the criteria shown by Table 13. In Table 13, a smaller necrosis index indicates a lesser adverse effect of necrosis caused by the treatment with the use of a plant disease controlling agent.

[1] = treatment amount 2 g ai/100 kg seeds
[2] = treatment amount 20 g ai/100 kg seeds
[3] = treatment amount 200 g ai/100 kg seeds

SMILES | Antifungal index (mycelial growth inhibition rate) (Gaeumannomyces graminis; 0.16 mg/L) | Antifungal index (mycelial growth inhibition rate) (Gaeumannomyces graminis; 0.31 mg/L) | Antifungal index (mycelial growth inhibition rate) (Gaeumannomyces graminis; 0.63 mg/L) | Antifungal index (mycelial growth inhibition rate) (Gaeumannomyces graminis; 1.25 mg/L) | Antifungal index (mycelial growth inhibition rate) (Gaeumannomyces graminis; 2.50 mg/L) | Antifungal index (mycelial growth inhibition rate) (Fusarium oxysporum; 0.04 mg/L) | Antifungal index (mycelial growth inhibition rate) (Fusarium oxysporum; 0.08 mg/L) | Antifungal index (mycelial growth inhibition rate) (Fusarium oxysporum; 0.16 mg/L) | Antifungal index (mycelial growth inhibition rate) (Fusarium oxysporum; 0.31 mg/L) | Antifungal index (mycelial growth inhibition rate) (Fusarium oxysporum; 0.63 mg/L) | Antifungal index (mycelial growth inhibition rate) (Fusarium oxysporum; 1.25 mg/L) | Antifungal index (mycelial growth inhibition rate) (Sclerotinia sclerotiorum; 0.16 mg/L) | Antifungal index (mycelial growth inhibition rate) (Sclerotinia sclerotiorum; 0.31 mg/L) | Antifungal index (mycelial growth inhibition rate) (Sclerotinia sclerotiorum; 0.63 mg/L) | Antifungal index (mycelial growth inhibition rate) (Sclerotinia sclerotiorum; 1.25 mg/L) | Antifungal index (mycelial growth inhibition rate) (Sclerotinia sclerotiorum; 2.50 mg/L) | Protective value (%) (Botrytis cinerea) | Protective value (%) (Puccinia recondita) | Antifungal index (mycelial growth inhibition rate) (Rhizopus oryzae; 0.16 mg/L) | Antifungal index (mycelial growth inhibition rate) (Rhizopus oryzae; 0.31 mg/L) | also measured
CC1(CCl)CCC(Cc2ccc(Cl)cc2)C1(O)Cn1cncn1 (single isomer, unassigned) [Compound (1-1a), (1,2-cis, 1,5-cis)-5-(4-chlorobenzyl)-2-chloromethyl-2-methyl-1-(1H-1,2,4-triazole-1-ylmethyl)cyclopentanol] | 3 (Less than 80% but not less than 70%) | 5 (90% or greater) | 5 (90% or greater) | 5 (90% or greater) | 5 (90% or greater) | 1 (Less than 60%) | 3 (Less than 80% but not less than 70%) | 4 (Less than 90% but not less than 80%) | 4 (Less than 90% but not less than 80%) | 5 (90% or greater) | 5 (90% or greater) | 5 (90% or greater) | 5 (90% or greater) | 5 (90% or greater) | 5 (90% or greater) | 5 (90% or greater) | 100% | 95% | 3 (Less than 80% but not less than 70%) | 4 (Less than 90% but not less than 80%) | Antifungal index (mycelial growth inhibition rate) (Rhizopus oryzae; 0.63 mg/L): 5 (90% or greater); Antifungal index (mycelial growth inhibition rate) (Rhizopus oryzae; 1.25 mg/L): 5 (90% or greater); Antifungal index (mycelial growth inhibition rate) (Rhizopus oryzae; 2.50 mg/L): 5 (90% or greater); Antifungal index (mycelial growth inhibition rate) (Microdochium nivale; 0.16 mg/L): 1 (Less than 60%); Antifungal index (mycelial growth inhibition rate) (Microdochium nivale; 0.31 mg/L): 3 (Less than 80% but not less than 70%); Antifungal index (mycelial growth inhibition rate) (Microdochium nivale; 0.63 mg/L): 3 (Less than 80% but not less than 70%); Antifungal index (mycelial growth inhibition rate) (Microdochium nivale; 1.25 mg/L): 4 (Less than 90% but not less than 80%); Antifungal index (mycelial growth inhibition rate) (Microdochium nivale; 2.50 mg/L): 5 (90% or greater); Necrosis index (wheat; [1]): 0 (Less than 1%); Necrosis index (wheat; [2]): 0 (Less than 1%); Necrosis index (wheat; [3]): 0 (Less than 1%)
CC1(CCl)CCC(Cc2ccc(Cl)cc2)C1(O)Cn1cncn1 (single isomer, unassigned) [Compound (1-1b), (1,2-cis, 1,5-cis)-5-(4-chlorobenzyl)-2-chloromethyl-2-methyl-1-(1H-1,2,4-triazole-1-ylmethyl)cyclopentanol] | 1 (Less than 60%) | 1 (Less than 60%) | 2 (Less than 70% but not less than 60%) | 5 (90% or greater) | 5 (90% or greater) | 1 (Less than 60%) | 3 (Less than 80% but not less than 70%) | 4 (Less than 90% but not less than 80%) | 5 (90% or greater) | 5 (90% or greater) | 5 (90% or greater) | 3 (Less than 80% but not less than 70%) | 5 (90% or greater) | 5 (90% or greater) | 5 (90% or greater) | 5 (90% or greater) | 45% | 29% | 1 (Less than 60%) | 1 (Less than 60%) | Antifungal index (mycelial growth inhibition rate) (Rhizopus oryzae; 0.63 mg/L): 1 (Less than 60%); Antifungal index (mycelial growth inhibition rate) (Rhizopus oryzae; 1.25 mg/L): 1 (Less than 60%); Antifungal index (mycelial growth inhibition rate) (Rhizopus oryzae; 2.50 mg/L): 4 (Less than 90% but not less than 80%); Antifungal index (mycelial growth inhibition rate) (Microdochium nivale; 0.16 mg/L): 1 (Less than 60%); Antifungal index (mycelial growth inhibition rate) (Microdochium nivale; 0.31 mg/L): 1 (Less than 60%); Antifungal index (mycelial growth inhibition rate) (Microdochium nivale; 0.63 mg/L): 1 (Less than 60%); Antifungal index (mycelial growth inhibition rate) (Microdochium nivale; 1.25 mg/L): 2 (Less than 70% but not less than 60%); Antifungal index (mycelial growth inhibition rate) (Microdochium nivale; 2.50 mg/L): 3 (Less than 80% but not less than 70%); Necrosis index (wheat; [1]): 0 (Less than 1%); Necrosis index (wheat; [2]): 2 (Less than 20% but not less than 5%); Necrosis index (wheat; [3]): 2 (Less than 20% but not less than 5%)
